Values joined by “and” are separate entries in the source; they are usually repeats but may differ in a detail not shown here. Identical values can stand only once. Each block holds one molecule with its values, some of them ahead of it.
Assay: xn = mol fraction of the nth substance listed

viscosity (302.2 K, 101.3 kPa, x2 = 0.6576): 324 mPa·s
viscosity (305.5 K, 101.3 kPa, x2 = 0.6576): 196 mPa·s
viscosity (310.4 K, 101.3 kPa, x2 = 0.6576): 96 mPa·s
viscosity (311.4 K, 101.3 kPa, x2 = 0.6576): 85 mPa·s
viscosity (314.3 K, 101.3 kPa, x2 = 0.6576): 54 mPa·s
viscosity (317.5 K, 101.3 kPa, x2 = 0.6576): 37 mPa·s
viscosity (322.4 K, 101.3 kPa, x2 = 0.6576): 21 mPa·s
Compound: O=C([O-])C(F)(F)F.[Na+] + CCCCNC(N)=O

Compound: CCCCCCCC[n+]1ccn(C)c1.F[P-](F)(F)(F)(F)F + O
viscosity (298 K, 101 kPa, x2 = 0.113): 506 mPa·s

Compound: O=C(O)CC(O)(CC(=O)O)C(=O)O + C[N+](C)(C)Cc1ccccc1.[Cl-]
electrical conductivity (303.11 K, 101 kPa, x2 = 0.5): 0.0002 S/m
electrical conductivity (308.2 K, 101 kPa, x2 = 0.5): 0.0005 S/m
electrical conductivity (313.21 K, 101 kPa, x2 = 0.5): 0.0011 S/m
viscosity (317.97 K, 101 kPa, x2 = 0.5): 152000 mPa·s
electrical conductivity (318.06 K, 101 kPa, x2 = 0.5): 0.0019 S/m
viscosity (323.1 K, 101 kPa, x2 = 0.5): 89000 mPa·s
electrical conductivity (323.14 K, 101 kPa, x2 = 0.5): 0.0032 S/m
viscosity (332.88 K, 101 kPa, x2 = 0.5): 28100 mPa·s
electrical conductivity (333.12 K, 101 kPa, x2 = 0.5): 0.0095 S/m

viscosity (298.15 K, 101 kPa, x1 = 0.3915): 15.42 mPa·s
viscosity (298.15 K, 101 kPa, x1 = 0.7748): 21.01 mPa·s
Compound: CCCCCCCC(=O)[O-].CCCCCC[NH+](CCCCCC)CCCCCC + O

Compound: CC[N+](CC)(CC)CC.[Cl-] + O
electrical conductivity (323 K, 100 kPa, x1 = 0.2): 4.1 S/m

Compound: O=S(=O)([N-]S(=O)(=O)C(F)(F)F)C(F)(F)F.[Li+] + COCCOCCOCCOCCOC
electrical conductivity (298 K, 100 kPa, x1 = 0.143): 0.255 S/m
electrical conductivity (303 K, 100 kPa, x1 = 0.143): 0.29 S/m
electrical conductivity (308 K, 100 kPa, x1 = 0.143): 0.325 S/m
electrical conductivity (313 K, 100 kPa, x1 = 0.143): 0.362 S/m
electrical conductivity (323 K, 100 kPa, x1 = 0.143): 0.465 S/m

Compound: CC[n+]1ccn(C)c1.O=S(=O)([O-])C(F)(F)F + O
electrical conductivity (296.75 K, 101 kPa, x2 = 0.304): 1.12 S/m
electrical conductivity (298.15 K, 101 kPa, x2 = 0.304): 1.23 S/m
electrical conductivity (298.35 K, 101 kPa, x2 = 0.304): 1.22 S/m
electrical conductivity (300.65 K, 101 kPa, x2 = 0.304): 1.32 S/m
electrical conductivity (301.05 K, 101 kPa, x2 = 0.304): 1.33 S/m
electrical conductivity (301.85 K, 101 kPa, x2 = 0.304): 1.37 S/m
electrical conductivity (302.75 K, 101 kPa, x2 = 0.304): 1.44 S/m

Compound: CCCC[n+]1ccn(C)c1.O=S(=O)([N-]S(=O)(=O)C(F)(F)F)C(F)(F)F + CO
viscosity (298 K, 100 kPa, x1 = 0.1): 1.693 mPa·s
viscosity (298 K, 100 kPa, x1 = 0.3834): 8.225 mPa·s
viscosity (298 K, 100 kPa, x1 = 0.4974): 12.54 mPa·s
viscosity (298 K, 100 kPa, x1 = 0.5875): 16.78 mPa·s
viscosity (298 K, 100 kPa, x1 = 0.7988): 30.69 mPa·s
viscosity (298 K, 100 kPa, x1 = 0.8995): 38.93 mPa·s

Compound: CCCC[n+]1ccn(C)c1.F[B-](F)(F)F + CO
electrical conductivity (298.1 K, 101 kPa, x1 = 0.0155): 0.884 S/m
electrical conductivity (298.1 K, 101 kPa, x1 = 0.0244): 1.16 S/m

Compound: CCCC[n+]1ccn(C)c1.O=S(=O)([N-]S(=O)(=O)C(F)(F)F)C(F)(F)F + O
viscosity (298 K, 101 kPa, x2 = 0.0716): 27 mPa·s

Compound: C[N+](C)(C)CCCl.[Cl-] + OCC(O)CO
viscosity (318.15 K, 100 kPa, x1 = 0.333): 161 mPa·s

Compound: CCCC[n+]1ccn(C)c1.F[B-](F)(F)F + O
electrical conductivity (288.15 K, 100 kPa, x1 = 0.0001): 0.0392 S/m
electrical conductivity (298.15 K, 100 kPa, x1 = 0.0001): 0.0505 S/m and 0.036 S/m
electrical conductivity (318.15 K, 100 kPa, x1 = 0.0001): 0.0942 S/m and 0.0522 S/m

Compound: CC[n+]1ccn(C)c1.[Cl-] + O
viscosity (373 K, 100 kPa, x1 = 0.8): 20 mPa·s
viscosity (373 K, 100 kPa, x1 = 0.9524): 27 mPa·s

Compound: CCCC[n+]1ccn(C)c1.O=S(=O)([N-]S(=O)(=O)C(F)(F)F)C(F)(F)F + CCCCn1cc[n+](C)c1.O=S(=O)([N-]S(=O)(=O)C(F)(F)F)c1ccc[cH-]1.[Fe+2].c1cc[cH-]c1
viscosity (298.15 K, 100 kPa, x1 = 1): 43.8 mPa·s

Compound: CCCCCCCCCC(=O)O + CCCC[N+](CCCC)(CCCC)CCCC.[Cl-]
viscosity (298.15 K, 100 kPa, x2 = 0.333): 372 mPa·s
viscosity (328.15 K, 100 kPa, x2 = 0.333): 73.2 mPa·s
viscosity (358.15 K, 100 kPa, x2 = 0.333): 22.2 mPa·s

Compound: CCCC[N+]1(C)CCCC1.O=S(=O)([N-]S(=O)(=O)C(F)(F)F)C(F)(F)F + OCCOCCOCCOCCO
viscosity (298.15 K, 101 kPa, x2 = 0): 70.5 mPa·s

viscosity (298.2 K, 100 kPa, x2 = 0.333): 47.5 mPa·s
viscosity (298.2 K, 100 kPa, x2 = 0.667): 198 mPa·s
Compound: c1c[nH]cn1 + CC[n+]1ccn(C)c1.[Cl-]

viscosity (293.15 K, 100 kPa, x1 = 0.333): 302 mPa·s
viscosity (293.15 K, 100 kPa, x1 = 0.5): 261 mPa·s
Compound: O=c1cc[nH]cc1 + CCCC[n+]1ccn(C)c1.[Cl-]

Compound: CCCn1cc[n+](C)c1C.O=S(=O)([N-]S(=O)(=O)C(F)(F)F)C(F)(F)F + OCCOCCOCCOCCO
viscosity (298.15 K, 101 kPa, x2 = 0): 85.6 mPa·s
viscosity (298.15 K, 101 kPa, x2 = 0.5): 56.1 mPa·s

Compound: CC[n+]1ccn(C)c1.[Cl-] + OCC(O)CO
viscosity (298.15 K, 101 kPa, x1 = 0.667): 345 mPa·s
viscosity (303.15 K, 101 kPa, x1 = 0.667): 243 mPa·s
viscosity (323.15 K, 101 kPa, x1 = 0.667): 75.6 mPa·s
viscosity (333.15 K, 101 kPa, x1 = 0.667): 47.2 mPa·s

Compound: CCCC[n+]1ccn(C)c1.[Cl-] + OCCO
electrical conductivity (303.15 K, 100 kPa, x1 = 0.333): 0.966 S/m
electrical conductivity (303.15 K, 100 kPa, x1 = 0.5): 1.06 S/m

Compound: CCCCCC[n+]1ccn(C)c1.O=S(=O)([N-]S(=O)(=O)C(F)(F)F)C(F)(F)F + Cc1ccccc1
electrical conductivity (298.15 K, 100 kPa, x1 = 0.0811): 0.3 S/m
electrical conductivity (298.15 K, 100 kPa, x1 = 0.1207): 0.4 S/m
electrical conductivity (298.15 K, 100 kPa, x1 = 0.1708): 0.5 S/m
electrical conductivity (298.15 K, 100 kPa, x1 = 0.236): 0.6 S/m
electrical conductivity (298.15 K, 100 kPa, x1 = 0.3246): 0.6 S/m

Compound: C[N+](C)(C)CCO.O=S(=O)([N-]S(=O)(=O)C(F)(F)F)C(F)(F)F + OCCOCCOCCOCCO
viscosity (298.15 K, 101 kPa, x2 = 0.5): 87 mPa·s

Compound: CCCC[n+]1ccn(C)c1.F[P-](F)(F)(F)(F)F + CCCC[n+]1ccn(C)c1.O=S(=O)([N-]S(=O)(=O)C(F)(F)F)C(F)(F)F
viscosity (313.15 K, 100 kPa, x1 = 0.25): 36.48 mPa·s
viscosity (313.15 K, 100 kPa, x1 = 0.75): 73.2 mPa·s

Compound: CCCCCCCC[n+]1ccn(C)c1.O=S(=O)([N-]S(=O)(=O)C(F)(F)C(F)(F)F)C(F)(F)C(F)(F)F + O
viscosity (293.15 K, 101 kPa, x2 = 0.148): 167 mPa·s
electrical conductivity (295.15 K, 101 kPa, x2 = 0.148): 0.13 S/m

speed of sound (293.15 K, 101.3 kPa, x1 = 0.333): 1915.5 m/s
speed of sound (298.15 K, 101.3 kPa, x1 = 0.333): 1903.4 m/s
speed of sound (303.15 K, 101.3 kPa, x1 = 0.333): 1891.8 m/s
speed of sound (308.15 K, 101.3 kPa, x1 = 0.333): 1879.3 m/s
speed of sound (313.15 K, 101.3 kPa, x1 = 0.333): 1869.1 m/s
Compound: CC[N+]1(C)CCCC1.[Br-] + OCCCCCCO

Compound: CCCCCCCC/C=C\CCCCCCCC(=O)O + CC[N+](CC)(CC)CC.[Cl-]
viscosity (298 K, 100 kPa, x2 = 0.25): 202.2 mPa·s
viscosity (303.2 K, 100 kPa, x2 = 0.25): 156.7 mPa·s
viscosity (333.2 K, 100 kPa, x2 = 0.25): 41.7 mPa·s

viscosity (313.15 K, 101 kPa, x1 = 0.0438): 2.533 mPa·s
Compound: CCCC[P+](CCCC)(CCCC)CCCC.[Cl-] + O

viscosity (318.15 K, 100 kPa, x1 = 0.333): 205 mPa·s
Compound: CCCCCCC[N+](CCCCCCC)(CCCCCCC)CCCCCCC.[Br-] + CCCCCCCCCC(=O)O

Compound: CCCCn1cc[n+](C)c1.O=S(=O)([N-]S(=O)(=O)C(F)(F)F)c1ccc[cH-]1.[Fe+2].c1cc[cH-]c1 + CCCC[n+]1ccn(C)c1.O=S(=O)([N-]S(=O)(=O)C(F)(F)F)C(F)(F)F
viscosity (298.15 K, 100 kPa, x2 = 0.461): 1226.1 mPa·s
viscosity (298.15 K, 100 kPa, x2 = 0.56): 542.8 mPa·s
viscosity (298.15 K, 100 kPa, x2 = 0.661): 295.4 mPa·s
viscosity (298.15 K, 100 kPa, x2 = 0.839): 108.5 mPa·s
viscosity (298.15 K, 100 kPa, x2 = 0.92): 73.3 mPa·s

viscosity (303.15 K, 100 kPa, x2 = 0.5): 196 mPa·s
viscosity (313.15 K, 100 kPa, x2 = 0.5): 116 mPa·s
viscosity (323.15 K, 100 kPa, x2 = 0.5): 73.6 mPa·s
viscosity (333.15 K, 100 kPa, x2 = 0.5): 50.6 mPa·s
viscosity (343.15 K, 100 kPa, x2 = 0.5): 36.8 mPa·s
viscosity (353.15 K, 100 kPa, x2 = 0.5): 29.1 mPa·s
Compound: CCCCCCCC[n+]1ccn(C)c1C.F[B-](F)(F)F + CCCCCCCC[n+]1ccn(C)c1.F[P-](F)(F)(F)(F)F

Compound: CCCCCC(=O)O + CCCC[N+](CCCC)(CCCC)CCCC.[Cl-]
viscosity (298 K, 100 kPa, x2 = 0.5): 320 mPa·s

electrical conductivity (306.15 K, 101 kPa, x2 = 0.5): 1.29 S/m
electrical conductivity (306.15 K, 101 kPa, x2 = 0.556): 0.603 S/m
electrical conductivity (306.15 K, 101 kPa, x2 = 0.588): 0.373 S/m
Compound: [Cl][Al]([Cl])[Cl] + CCCC[n+]1ccn(C)c1.[Cl-]
